Key:
[1] = Compound cytotoxicity, XTT-based colorimetric assay; type: cell-based; settings: human; uninfected MT2 cells, day 4, XTT; read-out: CC50
Summary of the method: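 Uninfected MT2 cells were treated with compound under the same protocol as the antiviral assay. Viability was read on day 4 with an XTT colorimetric assay, from which CC50 values were derived.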

[2] = system: recombinant NL4-3 virus (nef section replaced with Renilla luciferase gene) in MT-2 cells; assay: HIV cell culture assay (antiviral activity, luciferase readout); type: cell-based; settings: Renilla, NL43, MT-2 cells infected for 4-5 days with recombinant NL4-3 Renilla luciferase virus
Summary of the method: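 Antiviral EC50 derived from luciferase signal using the exponential median effect equation. Infection of MT-2 cells ran 4-5 days alongside serial dilutions of compound, with virus generated by proviral clone transfection of 293T cells.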

| Compound | CC50 at 4 days [1] | EC50 [2] |
| --- | --- | --- |
| CS(=O)(=O)Nc1nn(CCN2C[C@H](F)C[C@H](F)C2)c2c(-n3c([C@H](Cc4cc(F)cc(F)c4)NC(=O)Cn4nc(C(F)F)c5c4C(F)(F)[C@@H]4C[C@H]54)nc4nc(C5CCC(F)(F)CC5)cc(NCCN5CCOCC5)c4c3=O)ccc(Cl)c12 (atropisomer, axis not shown; (P)) [Example 491, N-[(1S)-1-[(3P)-3-(4-chloro-1-{2-[(3R,5S)-3,5-difluoropiperidin-1-yl]ethyl}-3-methanesulfonamido-1H-indazol-7-yl)-7-(4,4-difluorocyclohexyl)-5-{[2-(morpholin-4-yl)ethyl]amino}-4-oxo-3H,4H-pyrido[2,3-d]pyrimidin-2-yl]-2-(3,5-difluorophenyl)ethyl]-2-[(2S,4R)-9-(difluoromethyl)-5,5-difluoro-7,8-diazatricyclo[4.3.0.0^2,^4]nona-1(6),8-dien-7-yl]acetamide] | > 20 nM | 0.009 nM |
| Cc1cc(C2(F)CCC(F)(F)CC2)nc2nc([C@H](Cc3cc(F)cc(F)c3)NC(=O)Cn3nc(C(F)F)c4c3C(F)(F)[C@@H]3C[C@H]43)n(-c3ccc(Cl)c4c(NS(C)(=O)=O)nn(C[C@H](C)N5CC(C)(C)OC(C)(C)C5)c34)c(=O)c12 (atropisomer, axis not shown; (P)) [Example 717, N-[(1S)-1-[(3P)-3-{4-chloro-3-methanesulfonamido-1-[(2S)-2-(2,2,6,6-tetramethylmorpholin-4-yl)propyl]-1H-indazol-7-yl}-5-methyl-4-oxo-7-(1,4,4-trifluorocyclohexyl)-3H,4H-pyrido[2,3-d]pyrimidin-2-yl]-2-(3,5-difluorophenyl)ethyl]-2-[(2S,4R)-9-(difluoromethyl)-5,5-difluoro-7,8-diazatricyclo[4.3.0.0^2,^4]nona-1(6),8-dien-7-yl]acetamide] | > 20 nM | 0.032 nM |
| CO[C@@H](C)Cn1nc(NS(C)(=O)=O)c2c(Cl)ccc(-n3c([C@H](Cc4cc(F)cc(F)c4)NC(=O)Cn4nc(C(F)F)c5c4C(F)(F)[C@@H]4C[C@H]54)nc4nc(C5CCC(F)(F)CC5)cc(C)c4c3=O)c21 (atropisomer, axis not shown; (P)) [Example 78, N-[(1S)-1-[(3P)-3-{4-chloro-3-methanesulfonamido-1-[(2S)-2-methoxypropyl]-1H-indazol-7-yl}-7-(4,4-difluorocyclohexyl)-5-methyl-4-oxo-3H,4H-pyrido[2,3-d]pyrimidin-2-yl]-2-(3,5-difluorophenyl)ethyl]-2-[(2S,4R)-9-(difluoromethyl)-5,5-difluoro-7,8-diazatricyclo[4.3.0.0^2,^4]nona-1(6),8-dien-7-yl]acetamide] | > 50 nM | 0.016 nM |
| COCCCn1nc(NS(C)(=O)=O)c2c(Cl)ccc(-n3c([C@H](Cc4cc(F)cc(F)c4)NC(=O)Cn4nc(C(F)F)c5c4C(F)(F)[C@@H]4C[C@H]54)nc4nc(C5CCC(F)(F)CC5)cc(NCC(=O)N5CCCCC5)c4c3=O)c21 (atropisomer, axis not shown; (P)) [Example 566, N-[(1S)-1-[(3P)-3-[4-chloro-3-methanesulfonamido-1-(3-methoxypropyl)-1H-indazol-7-yl]-7-(4,4-difluorocyclohexyl)-4-oxo-5-{[2-oxo-2-(piperidin-1-yl)ethyl]amino}-3H,4H-pyrido[2,3-d]pyrimidin-2-yl]-2-(3,5-difluorophenyl)ethyl]-2-[(2S,4R)-9-(difluoromethyl)-5,5-difluoro-7,8-diazatricyclo[4.3.0.0^2,^4]nona-1(6),8-dien-7-yl]acetamide] | > 20 nM | 0.079 nM |
| COCCNCCn1nc(NS(C)(=O)=O)c2c(Cl)ccc(-n3c([C@H](Cc4cc(F)cc(F)c4)NC(=O)Cn4nc(C5CC5)c5c4C[C@@H]4C[C@H]54)nc4nc(C5CCC(F)(F)CC5)cc(C)c4c3=O)c21 (atropisomer, axis not shown; (P)) [Example 10, N-[(1S)-1-[(3P)-3-(4-chloro-3-methanesulfonamido-1-{2-[(2-methoxyethyl)amino]ethyl}-1H-indazol-7-yl)-7-(4,4-difluorocyclohexyl)-5-methyl-4-oxo-3H,4H-pyrido[2,3-d]pyrimidin-2-yl]-2-(3,5-difluorophenyl)ethyl]-2-[(2S,4S)-9-cyclopropyl-7,8-diazatricyclo[4.3.0.0^2,^4]nona-1(6),8-dien-7-yl]acetamide] | > 50 nM | 0.06 nM |
| Cc1cc(C2CCC(F)(F)CC2)nc2nc([C@H](Cc3cc(F)cc(F)c3)NC(=O)Cn3nc(C(F)F)c4c3C(F)(F)[C@@H]3C[C@H]43)n(-c3ccc(Cl)c4c(NS(C)(=O)=O)nn(CCN5C[C@@H](F)[C@@H](F)C5)c34)c(=O)c12 (atropisomer, axis not shown; (P)) [Example 267, N-[(1S)-1-[(3P)-3-(4-chloro-1-{2-[(3R,4S)-3,4-difluoropyrrolidin-1-yl]ethyl}-3-methanesulfonamido-1H-indazol-7-yl)-7-(4,4-difluorocyclohexyl)-5-methyl-4-oxo-3H,4H-pyrido[2,3-d]pyrimidin-2-yl]-2-(3,5-difluorophenyl)ethyl]-2-[(2S,4R)-9-(difluoromethyl)-5,5-difluoro-7,8-diazatricyclo[4.3.0.0^2,^4]nona-1(6),8-dien-7-yl]acetamide] | > 50 nM | 0.015 nM |
| Cc1cc(C2CCC(F)(F)CC2)nc2nc([C@H](Cc3cc(F)cc(F)c3)NC(=O)Cn3nc(C(F)(F)F)c4c3C[C@@H]3C[C@H]43)n(-c3ccc(Cl)c4c(NS(C)(=O)=O)nn(CCN5CCOCC5)c34)c(=O)c12 (atropisomer, axis not shown; (P)) [Example 115, N-[(1S)-1-[(3P)-3-{4-chloro-3-methanesulfonamido-1-[2-(morpholin-4-yl)ethyl]-1H-indazol-7-yl}-7-(4,4-difluorocyclohexyl)-5-methyl-4-oxo-3H,4H-pyrido[2,3-d]pyrimidin-2-yl]-2-(3,5-difluorophenyl)ethyl]-2-[(2S,4S)-9-(trifluoromethyl)-7,8-diazatricyclo[4.3.0.0^2,^4]nona-1(6),8-dien-7-yl]acetamide] | > 50 nM | 0.016 nM |
| Cc1cc(C2CCC(F)(F)CC2)nc2nc([C@H](Cc3cc(F)cc(F)c3)NC(=O)Cn3nc(C4CC4)c4c3C[C@@H]3C[C@H]43)n(-c3ccc(Cl)c4c(NS(C)(=O)=O)nn(CCN5CCC(C)(F)CC5)c34)c(=O)c12 (atropisomer, axis not shown; (P)) [Example 278, N-[(1S)-1-[(3P)-3-{4-chloro-1-[2-(4-fluoro-4-methylpiperidin-1-yl)ethyl]-3-methanesulfonamido-1H-indazol-7-yl}-7-(4,4-difluorocyclohexyl)-5-methyl-4-oxo-3H,4H-pyrido[2,3-d]pyrimidin-2-yl]-2-(3,5-difluorophenyl)ethyl]-2-[(2S,4S)-9-cyclopropyl-7,8-diazatricyclo[4.3.0.0^2,^4]nona-1(6),8-dien-7-yl]acetamide] | > 50 nM | 0.005 nM |
| COCCN(CCOC)C(=O)Cn1nc(NS(C)(=O)=O)c2c(Cl)ccc(-n3c([C@H](Cc4cc(F)cc(F)c4)NC(=O)Cn4nc(C5CC5)c5c4C[C@@H]4C[C@H]54)nc4nc(C5CCC(F)(F)CC5)cc(C)c4c3=O)c21 (atropisomer, axis not shown; (P)) [Example 387, 2-[(6P)-4-chloro-7-{2-[(1S)-1-{2-[(2S,4S)-9-cyclopropyl-7,8-diazatricyclo[4.3.0.0^2,^4]nona-1(6),8-dien-7-yl]acetamido}-2-(3,5-difluorophenyl)ethyl]-7-(4,4-difluorocyclohexyl)-5-methyl-4-oxo-3H,4H-pyrido[2,3-d]pyrimidin-3-yl}-3-methanesulfonamido-1H-indazol-1-yl]-N,N-bis(2-methoxyethyl)acetamide] | > 20 nM | 0.039 nM |
| Cc1cc(C2(F)CCC(F)(F)CC2)nc2nc([C@H](Cc3cc(F)cc(F)c3)NC(=O)Cn3nc(C(F)F)c4c3C(F)(F)[C@@H]3C[C@H]43)n(-c3ccc(Cl)c4c(NS(C)(=O)=O)nn([C@H](C)CN5C[C@@H](C)O[C@@H](C)C5)c34)c(=O)c12 (atropisomer, axis not shown; (P)) [Example 729, N-[(1S)-1-[(3P)-3-{4-chloro-1-[(2R)-1-[(2R,6S)-2,6-dimethylmorpholin-4-yl]propan-2-yl]-3-methanesulfonamido-1H-indazol-7-yl}-5-methyl-4-oxo-7-(1,4,4-trifluorocyclohexyl)-3H,4H-pyrido[2,3-d]pyrimidin-2-yl]-2-(3,5-difluorophenyl)ethyl]-2-[(2S,4R)-9-(difluoromethyl)-5,5-difluoro-7,8-diazatricyclo[4.3.0.0^2,^4]nona-1(6),8-dien-7-yl]acetamide] | > 20 nM | 0.023 nM |
| Cc1cc(C2CCC(F)(F)CC2)nc2nc([C@H](Cc3cc(F)cc(F)c3)NC(=O)Cn3nc(C4CC4)c4c3C[C@@H]3C[C@H]43)n(-c3ccc(Cl)c4c(NS(C)(=O)=O)nn([C@@H](C)CN5CC(C)(C)OC(C)(C)C5)c34)c(=O)c12 (relative stereo) [Example 724, N-[(1S)-1-[(3P)-3-{4-chloro-3-methanesulfonamido-1-[(2S)-1-(2,2,6,6-tetramethylmorpholin-4-yl)propan-2-yl]-1H-indazol-7-yl}-7-(4,4-difluorocyclohexyl)-5-methyl-4-oxo-3H,4H-pyrido[2,3-d]pyrimidin-2-yl]-2-(3,5-difluorophenyl)ethyl]-2-[(2R*,4R*)-9-cyclopropyl-7,8-diazatricyclo[4.3.0.0^2,^4]nona-1(6),8-dien-7-yl]acetamide] | > 20 nM | 0.036 nM |

From US12594276B2, “Inhibitors of human immunodeficiency virus replication” (ViiV Healthcare UK (No.5) Limited, priority 2024, dated 2026)
